Data set [1] can be described thus: in vitro. The settings on record: human; for recovery at 90 min, 250 μM / recovery at 90 min: Caco-2, Recovery [%] mean ± s.d. How it is done:
(§1) The membrane permeability was investigated in Caco-2 monolayers. DMF was investigated in a separate experiment for comparison.
(§2) […] The test concentration in the apical medium was 250 μM. […] Furthermore, a significant metabolism or degradation of the test compound was expected and therefore the parent compound as well as MMF was determined in the acceptor compartment (basolateral medium). Sampling time points were 15, 45 and 90 min.

Data set [2] relates to Caco-2 monolayers. Put plainly: in vitro. Particulars: for permeability category compared to the reference molecules: Caco-2. How it is done:
as §1, §2
For orientation: Caco-2 cells form a polarised layer with tight junctions and transporters.

Data set [3] relates to MOG35-55-induced experimental autoimmune encephalomyelitis (EAE). The data set can be described thus: MOG35-55-induced experimental autoimmune encephalomyelitis (EAE) in the mouse. The data set is classed as in vivo, male C57BL/6 mice. Particulars: prophylactic treatment from day 1; observations day 1 to 13; dose formulation 11.54 mM, 10 ml/kg. How it is done: The pharmacological efficacy was investigated in experimental autoimmune encephalomyelitis (EAE) in the mouse.
The experiments were performed as follows: male C57BL/6 mice, 12 weeks old, 10 animals per treatment group, were used. On day 1, animals were immunized by sub-cutaneous injection of MOG35-55, which was mixed in complete Freund's adjuvants. On the same day as well as on day 3 the animals received a sub-cutaneous injection of Pertussis-toxin.
Assessment and comparison of the efficacy of compounds of the invention and DMF (reference) in MOG35-55-induced experimental autoimmune encephalomyelitis (EAE) in C57BL/6 mice. • Test system: male C57BL/6 mice, 12 weeks old; 10 animals per treatment group; • Induction of EAE: Day 1—subcutaneous injection of MOG35-55, suspended in complete Freund's adjuvants and intraperitoneal injection of pertussis toxin. • Day 3—intraperitoneal injection of pertussis toxin. • Treatment: Dimethylfumarate and test substances or vehicle only were administered via oral and intravenous route. For oral administration, test substances were dissolved or suspended in 0.5% hydroxyethylcellulose (dissolved in 50 mM potassium dihydrogenphosphate, pH 5.0). […]

Data set [4] is described as follows: In vivo pharmacokinetics of MMF after p.o. administration. Further details: species or system female NMRI mice. The settings on record: female, NMRI, mouse, po, 49.4 mg/kg. As to the method:
The pharmacokinetics of MMF after administration of Example 7 and DMF for comparison was investigated in female NMRI mice (3 animals per group). The test compound was dissolved in DMSO/PEG300 (20/80) and administered p.o. (gavage) at a dose volume of 10 ml/kg. DMF was given at a dose of 45 mg/kg. The test compound was dosed at a MMF-equivalent dose, i.e. 49.4 mg/kg. Blood samples were taken at 0.25, 0.5, 1.0, 2.0, 4.0, 6.0 and 8.0 h after drug administration.
Pharmacokinetic parameters, derived by non-compartmental analysis for test compound

The mark [5] stands for this setting: Caco-2, Papp × 10^−6 [cm/sec] mean ± s.d.

These results are taken from patent publication US9796659B2, “Derivatives of polyhydroxy compounds” (RATIOPHARM GMBH, priority 2014, dated 2017).

Counter-ions that a name gives are not always drawn.

In the case of `COC(=O)/C=C/C(=O)OC` [DMF, Dimethyl fumarate], in data set [1] (setting [5]), the Papp A→B at 90 min, 250 μM was found to be 1.8 ± 0.2 ×10⁻⁶ cm/s. In data set [1], the recovery at 90 min, 250 μM was 11.6%. For the same compound, in data set [2], the “permeability category compared to the reference molecules” value is listed as “moderate permeability”. In addition, in data set [3], the body weight result was “remained stable” and the “clinical symptoms (clinical score, grade 0-10)” value is “protected from the development of clinical symptoms”.

`CC[C@H]1OC(=O)[C@H](C)[C@@H](O[C@H]2C[C@@](C)(OC)[C@@H](O)[C@H](C)O2)[C@H](C)[C@@H](O[C@@H]2O[C@H](C)C[C@H](N(C)C)[C@H]2O)[C@](C)(O)C[C@@H](C)C(=O)[C@H](C)[C@@H](O)[C@]1(C)O` [Erythromycin, erythromycin]: the efflux ratio at 90 min in data set [1] (Caco-2, Efflux ratio (b-a/a-b)) was determined as 55.9. Further, in data set [1] (setting [5]), the Papp A→B at 90 min, 250 μM turned out to be 0.2 ± 0.02 ×10⁻⁶ cm/s and the Papp B→A at 90 min came to 12.3 ± 0.4 ×10⁻⁶ cm/s. Besides, in data set [1], the recovery at 90 min was 99.9 ± 2.4% and the recovery at 90 min, 250 μM is 108 ± 2.2%. Moreover, in data set [2] (human, Caco-2, 90 min), the “Efflux ratio (b-a/a-b)” value worked out at 100.8, the “Papp × 10^−6 [cm/sec] mean ± s.d.” value is listed as 11.5 ± 0.5 10^−6 cm/sec and the “Recovery [%] mean ± s.d.” value is given as 89.1 ± 8.5%. Further, in data set [2] (human, Caco-2, 90 min, 250 μM), the “Papp × 10^−6 [cm/sec] mean ± s.d.” value was 0.1 ± 0.2 10^−6 cm/sec and the “Recovery [%] mean ± s.d.” value worked out at 91.0 ± 1.9%.

As for `COC(=O)/C=C/C(=O)OCC(O)COC(=O)/C=C/C(=O)OC` [Example 7, (E)-But-2-enedioic acid 2-hydroxy-3-((E)-3-methoxycarbonyl-acryloyloxy)-propyl ester methyl ester], in data set [1] (setting [5]), the Papp A→B at 90 min, 250 μM is 2.5 ± 0.2 ×10⁻⁶ cm/s. In data set [1], the recovery at 90 min, 250 μM amounted to 18.3%. Besides, the “permeability category compared to the reference molecules” value in data set [2] is given as “moderate permeability”. Besides, in data set [4], the “Tmax of MMF” value came out at 15 min.

In data set [1] (direction a-b), `C[C@]12CC[C@H]3[C@@H](CCC4=CC(=O)CC[C@@]43C)[C@@H]1CC[C@@H]2O` [Testosterone, testosterone] showed a recovery at 90 min, 250 μM of 67.3 ± 1.2%. Besides, the recovery at 90 min in data set [1] (direction b-a) was determined as 94.9 ± 0.9%. The “Recovery [%] mean ± s.d.” value in data set [2] (direction a-b) is 62.5 ± 2.1%; in data set [2] (direction b-a) it was 76.1 ± 4.5%.

As a reminder, the Papp A→B is the apparent permeability from the apical to the basolateral side of a cell layer. A higher Papp A→B goes with ready permeation. Broadly, the efflux ratio is the permeability from basolateral to apical divided by that in the opposite direction, in the common usage. In general, Papp B→A refers to how fast a substance crosses the layer from the basolateral side.
